Source: paper PMC11695783 (Frontiers in Pharmacology, 2024)
“And” between values parts separate entries of the source, which are not always exact repeats. Identical values can stand only once.

Test: Pharmacokinetic studies in mice (intravenous and intramuscular, plasma, HPLC-MS/MS)
Assay type: in vivo, BALB/c mice
Design: AUClast / AUCall / AUCINF_obs / AUCINF_pred / AUCINFobs: concentration or dose not given beside the values; Tlast / Clast / AUMClast / AUMCINF_obs / AUMCINF_pred / Lambda_z / HL_Lambda_z / Cl_obs / Cl_pred / Cl_F_obs / Tlag / Cl_F_pred: unit not given here
Details: for plasma concentration, AV: average of mice; for plasma concentration: individual mice 1-8
Procedure: Pharmacokinetic experimental procedures of compound 16C were measured according to previous reports with some modifications ([Wang et al., 2022]). In brief, BALB/c mice were divided into two groups of eight mice each; one group was injected intravenously and the other was injected intramuscularly with compound 16C at a dose of 10 mg/kg. The dose was based on previous studies of novel pleuromutilin derivatives ([Jin et al., 2019]; [Wang et al., 2022]). Meanwhile, the dose of tiamulin approved by the European Union for intramuscular administration is 10–20 mg/kg ([EMA, 1999]). The volume of the injection was 0.1 mL/10 g. The compound 16C formulation was a filtered solution in 5% DMSO, 5% Tween-80, and 90% normal saline. Blood was obtained from eight mice via the ocular venous plexus at 0.083, 0.167, 0.25, 0.334, 0.5, 0.75, 1, 1.5, 2, 3, 4, 6, 8, and 12 h following tail intravenous or thigh Intramuscular injection. A glass capillary with a diameter of 0.3 mm was inserted into the outer canthus of the mouse, and 200 μL blood was collected using a 1.5 mL anticoagulant centrifuge tube. The blood was centrifuged at 3,000 rpm for 10 min to obtain plasma. 100 μL of plasma was aspirated for drug concentration detection, and eight parallel samples from different mice were obtained at each time point.
All pharmacokinetic experimental samples and method validation samples were added with 4 times the volume of acetonitrile and shaken for 1 min, centrifuged at high speed at 13,000× g for 10 min, and the supernatants were taken and filtered to detect the drug concentration. Some samples with high concentrations were diluted to the linear range prior to analysis.
The extracted samples were analyzed using a high-performance liquid chromatography-tandem mass spectrometry (HPLC-MS/MS) system (Agilent, Santa Clara, CA, United States) 1200 HPLC and Applied Biosystems (Waltham, MA, United States) API 4000 mass spectrometer). HPLC-MS/MS analysis using a Zorbax Eclipse XDB-C18 (4.6 × 50 mm, 3.5 μm) column (Agilent). The mobile phase A (acetonitrile) and B (water) were applied as a gradient as follows: 0–3 min: 15%–95% A and maintain from 3 min to 5 min at 95% A. 5–5.1 min: 95%–15% A and maintain from 5.1 to 10 min at 15% A. Flow rate: 500 μL/min; column temperature: 30°C and injection volume: 4 μL. The electrospray ionization (ESI) source of the mass spectrometer was operated in […], with the following ion source parameters: ion spray voltage 4,500 V, collision gas 7 psi, ion source gas 1 55 psi, ion source gas 2 40 psi, curtain gas 20 psi, source temperature 600°C. The precursor ion m/z of Compound 16C was 633.3, and the product ions m/z were 272.0 (quantifier) 286.9 and 313.0. Declustering potentials (DP) were 140, 140, and 144 V, respectively; entrance potential (EP) was 10 V; collision energy (CE) was 55, 46, and 15 V, respectively; and collision cell exit potential (CXP) was 14 V.
[…] Pharmacokinetic parameters include time to maximum concentration (Tmax), maximum concentration (Cmax), the area under the plasma concentration–time curve (AUC0-∞), clearance rate (CL), the apparent volume of distribution (Vd), bioavailability (F), elimination half-life (T1/2kel) and absorption half-life (T1/2ka).

For C=C[C@]1(C)C[C@@H](OC(=O)CSc2ccc(NC(=O)Cc3ccc([N+](=O)[O-])cc3)cc2)[C@]2(C)[C@H](C)CC[C@]3(CCC(=O)[C@H]32)[C@@H](C)[C@@H]1O, the “plasma concentration, AV” value (IM, 0.083h) was 409.1 ng/mL, the “plasma concentration, AV” value (IM, 0.17h) was 470.8 ng/mL and the “plasma concentration, AV” value (IM, 0.25h) was 496 ng/mL. The “plasma concentration, AV” value (IM, 0.33h) was 490 ng/mL, the “plasma concentration, AV” value (IM, 0.5h) was 449.1 ng/mL and the “plasma concentration, AV” value (IM, 0.75h) was 404.2 ng/mL. The “plasma concentration, AV” value (IM, 1h) was 281.2 ng/mL, the “plasma concentration, AV” value (IM, 1.5h) was 246.4 ng/mL and the plasma concentration (IM, 1.5h) was 189 ng/mL and 266 ng/mL and 253 ng/mL and 291 ng/mL and 290 ng/mL and 328 ng/mL and 158 ng/mL and 196 ng/mL. For the same molecule, the “plasma concentration, AV” value (IM, 2h) was 158.4 ng/mL, the plasma concentration (IM, 2h) was 100 ng/mL and 171 ng/mL and 124 ng/mL and 153 ng/mL and 195 ng/mL and 254 ng/mL and 139 ng/mL and 131 ng/mL and the “plasma concentration, AV” value (IM, 3h) was 123.2 ng/mL. The plasma concentration (IM, 3h) was 92.5 ng/mL and 183 ng/mL and 129 ng/mL and 115 ng/mL and 122 ng/mL and 146 ng/mL and 111 ng/mL and 87 ng/mL, the “plasma concentration, AV” value (IM, 4h) was 84.54 ng/mL and the plasma concentration (IM, 4h) was 67.6 ng/mL and 99.6 ng/mL and 79.9 ng/mL and 104 ng/mL and 84.5 ng/mL and 117 ng/mL and 51.6 ng/mL and 72.1 ng/mL. For the same molecule, the “plasma concentration, AV” value (IM, 6h) was 37.03 ng/mL, the plasma concentration (IM, 6h) was 27 ng/mL and 51.8 ng/mL and 31.4 ng/mL and 43.1 ng/mL and 35.8 ng/mL and 43.3 ng/mL and 20 ng/mL and 43.8 ng/mL and the “plasma concentration, AV” value (IM, 8h) was 18.45 ng/mL. For the same molecule, the plasma concentration (IM, 8h) was 13.1 ng/mL and 25.3 ng/mL and 16.7 ng/mL and 19.2 ng/mL and 15 ng/mL and 22.7 ng/mL and 13 ng/mL and 22.6 ng/mL, the “plasma concentration, AV” value (IM, 12h) was 6.302 ng/mL and the plasma concentration (IM, 12h) was 1.85 ng/mL and 6.51 ng/mL and 5.87 ng/mL and 6.37 ng/mL and 4.83 ng/mL and 6.04 ng/mL and 9.7 ng/mL and 9.25 ng/mL. The AUCINF_obs (IM, individual mice) was 1087.9 and 805.258 and 1373.07 and 1092.7 and 1076.67 and 1204.87 and 1450.76 and 1023.1, the AUCINF_pred (IM, individual mice) was 1087.68 and 805.26 and 1373.07 and 1092.68 and 1076.58 and 1204.84 and 1450.76 and 1021.5 and the AUC_%Extrap_obs (IM, individual mice) was 3.4748% and 0.4887% and 1.3883% and 1.9994% and 1.9823% and 1.3449% and 1.2619% and 9.501%. For the same molecule, the AUC_%Extrap_pred (IM, individual mice) was 3.4549% and 0.489% and 1.388% and 1.9971% and 1.9741% and 1.3423% and 1.262% and 9.3589%, the AUCall (IM, individual mice) was 1050.1 and 801.322 and 1354.01 and 1070.85 and 1055.33 and 1188.66 and 1432.45 and 925.896 and the AUClast (IM, individual mice) was 1050.1 and 801.322 and 1354.01 and 1070.85 and 1055.33 and 1188.66 and 1432.45 and 925.896. The AUMCINF_obs (IM, individual mice) was 3193.81 and 1900.71 and 3591.01 and 2771.66 and 3099.57 and 2821.33 and 3581.57 and 4169.2, the AUMCINF_pred (IM, individual mice) was 3190.21 and 1900.74 and 3590.96 and 2771.26 and 3098.18 and 2820.84 and 3581.6 and 4133.86 and the AUMC_%Extrap_obs (IM, individual mice) was 19.0405% and 2.9249% and 7.9241% and 12.3927% and 10.57% and 8.8194% and 7.6827% and 51.3426%. For the same molecule, the AUMC_%Extrap_pred (IM, individual mice) was 18.949% and 2.9266% and 7.9228% and 12.3802% and 10.53% and 8.8035% and 7.6834% and 50.9267%, the AUMClast (IM, individual mice) was 2585.7 and 1845.12 and 3306.46 and 2428.17 and 2771.94 and 2572.51 and 3306.41 and 2028.62 and the Cl_F_obs (IM, individual mice) was 9192.03 and 0.0124 and 0.0073 and 0.0092 and 0.0093 and 0.0083 and 0.0069. The Cl_F_pred (IM, individual mice) was 0.0124 and 0.0073 and 0.0092 and 0.0093 and 0.0083 and 0.0069, the Clast (IM, individual mice) was 9.25 and 1.85 and 6.51 and 5.87 and 6.37 and 4.83 and 6.04 and 9.7 and the Cmax (IM, individual mice) was 520 and 469 and 730 and 550 and 410 and 609 and 667 and 531. For the same molecule, the HL_Lambda_z (IM, individual mice) was 2.8327 and 1.4744 and 2.0296 and 2.5798 and 2.3224 and 2.3255 and 2.1008 and 6.9461, the Tlag (IM, individual mice) was 0 and the Tlast (IM, individual mice) was 12. For the same molecule, the Lambda_z (IM, individual mice, non-compartmental analysis) was 0.2447 and 0.4701 and 0.3415 and 0.2687 and 0.2985 and 0.2981 and 0.3299 and 0.0998, the MRTINF_obs (IM, individual mice, in h) was 2.9358 and 2.3604 and 2.6153 and 2.5365 and 2.8788 and 2.3416 and 2.4688 and 4.0751 and the MRTINF_pred (IM, individual mice, in h) was 2.9331 and 2.3604 and 2.6153 and 2.5362 and 2.8778 and 2.3413 and 2.4688 and 4.0469. For the same molecule, the MRTlast (IM, individual mice, in h) was 2.4623 and 2.3026 and 2.442 and 2.2675 and 2.6266 and 2.1642 and 2.3082 and 2.191, the Tmax (IM, individual mice, in h) was 0.25 and 0.33 and 0.5 and 0.17 and 0.75 and the “plasma concentration, AV” value (IV, 0.083h) was 4.976 ng/mL.
